Source: article PMC12670405, “Second-Generation AURKA-Targeting PROTACs: Structural Optimization toward in Vivo Degradation in Neuroblastoma” (Journal of Medicinal Chemistry, 2025)

Test system: SJNB-1
Test: IncuCyte live-cell imaging, antiproliferative effect
Assay type: cell-based
Settings: Homo sapiens, 72 h, read-out: Cell GI50 72h
Experimental: The use of human cell lines in this study was approved by the Ethics Committee of Ghent University Hospital (EC/029-2022/sds). Human neuroblastoma cell lines NGP, IMR-32, SJNB-8, SK-N-BE(2)-C, SJNB-1, SK-N-SH and SK-N-AS, as well as benign immortalized cell lines RPE and HEK293T were either bought commercially or obtained through research laboratories. The neuroblastoma cell lines and HEK293T were cultured in RPMI 1640 medium (Gibco, #52400041) supplemented with 10% fetal bovine serum (Sigma-Aldrich, #F0804), 2 mM L-glutamine (Gibco, #11548876), and 100 IU/mL penicillin/streptomycin (Gibco, #11548876). RPE cells were cultured in DMEM-F12 (Gibco, #11594426), supplemented with 10% fetal bovine serum, 2 mM L-glutamine and 100 IU/mL penicillin/streptomycin. Screening for mycoplasma contamination occurred routinely on the cells. […]
Neuroblastoma cells were seeded in 384-well plates at different densities ranging from 1200 to 5000 cells/well and allowed to adhere overnight. […] Compound treatment was performed using the D300e Digital Dispenser (Tecan) in duplicate or triplicate and cell confluency was monitored over time using the IncuCyte Live-cell imaging system (Sartorius). […] Mean normalized confluences were calculated from 3 individual experiments. […]

SMILES	GI50 [µM]
Cc1cc(Nc2ccc(F)c(CC3(C(=O)N4CCC(CN5CCN(c6ccc(N7CCC(=O)NC7=O)cn6)CC5)CC4)CCN(Cc4cccc(Cl)c4F)CC3)n2)n[nH]1 [SK4454]	13.4
Cc1cc(Nc2ccc(F)c(CC3(C(=O)N4CCC(F)(CN5CCN(c6ccc(N7CCC(=O)NC7=O)cn6)CC5)CC4)CCN(Cc4cccc(Cl)c4F)CC3)n2)n[nH]1 [SK5527]	8.63
